From US11752125B2, “Anti-neuroinflammatory and protective compounds in Achillea fragrantissima” (THE STATE OF ISRAEL MINISTRY OF AGRICULTURE & RURAL …, priority 2013, dated 2023)

How the values were obtained:
[1] = system: N2a neuronal cells; test: Aβ25-35-induced ROS elevation in N2a cells; type: cell-based; details: Aβ25-35 25 μM, 20 hr
Experimental: 2. Plate N2a cells (10,000 cells/0.2 ml/well of 96 wells plate) in DMEM (high glucose, 225 ml), Opti-MEM (250 mil) containing 5% Fetal Bovine Serum, 2 mM L-Glutamine, 100 U/ml penicillin and 100 micrograms/mL streptomycin and incubate (37° C., 5% CO2) for 24 hr. 3. Replace the medium with a fresh one containing 20 micromolars 2′7′-dichlorofluorescein diacetate (DCF-DA); 4. Incubate 30 min (37° C., 5% CO2); 5. Wash twice with PBS; 6. Replace with fresh medium; 7. Read fluorescence of “time 0” at 485 nm (Extinction) and 528 nm (Emmision). 8. Incubate the cultured cells for 2 hours with freshly diluted TTF or AcA of the invention; 9. Add freshly diluted Aβ25-35 (25 micromolars); 10. Read fluorescence at 20 hr after the addition of Aβ25-35 (25 micromolars) (Ex: 485 nm and Em: 528 nm). 11. A reduction of 70% of ROS levels are indication for an anti-oxidant activity in this assay.
N2a neuronal cells were treated with Aβ25-35 (25 μM) and TTF. ROS levels were measured 20 hr later. The results are shown in FIG. 11 and are the mean±SEM of two different experiments (n=15).
N2a neuronal cells were treated with Aβ25-35 (25 μM) and achillolide A. Cytotoxicity (FIG. 27A) viability (FIG. 27B) and ROS levels (FIG. 27C) were measured 20 hr later. The results are the mean±SEM of two different experiments (n=16).

[2] = system: NO; test: NO (nitrite) production by LPS-activated microglial cells (Griess); type: cell-based, rat; details: Rattus norvegicus; 40 μM (highest concentration tested); LPS 4.5 ng/mL, 20 h; read-out: inhibition of NO secretion
Experimental: Cultures of primary rat microglial cells were prepared from cerebral cortices of 1-2 day-old neonatal Wistar rats as described. Microglial cells were seeded at 24-well plastic plates at 1×10^5/well in RPMI-1640 containing 2% FBS, 2 mM glutamine, 100 U/mL penicillin, 100 µg/mL streptomycin, 1 mM sodium pyruvate, and 50 μM β-mercaptoethanol. Cells were cultured for 36 h before treatments. The research was conducted in accordance with the NIH guide for the care and use of laboratory animals, and was approved by the Institutional Animal Care and Use Committee of The Volcani Center, Agricultural Research Organization (IL-135/07, approval date Apr. 11, 2007). All efforts were made to minimize animal suffering, and to reduce the number of animals used.
For NO measurements, 1×10^5 microglial cells/well were plated in a 24-well tissue culture plate. Cells were stimulated with LPS (4.5 ng/mL) and concomitantly treated with achillolide A or a reference drug. NO levels in the culture medium were estimated with Griess reagent.
3. Activate microglial cells with lipopolysaccharide (LPS, 4.5 nanograms/mL);
In FIG. 21 A, microglial cells were treated with different concentrations of achillolide A, dexamethasone or memantine (as reference drugs) and were concomitantly activated by LPS (4.5 ng/mL) for 20 h. Cell conditioned supernatants were collected, and the levels of NO were measured using Griess reaction. Cytotoxicity was measured using the LDH method (FIG. 21B). Values represent the mean±SEM (n=12 for each treatment). ** p<0.01; ***p<0.001 relative to cells that were treated to LPS only.

Row | SMILES | effect on Aβ25-35-induced ROS elevation [1] | inhibition at 40 µM [2]
1 | C=C1CCC2=C(CO)C(=O)O[C@H]2/C=C(\C)[C@H](OC(C)=O)CC1=O [achillolide A] | prevents the elevation in ROS levels | 66%
2 | COc1cc(-c2oc3cc(OC)c(OC)c(O)c3c(=O)c2O)ccc1O [TTF, 3,5,4′-trihydroxy-6,7,3′-trimethoxyflavone] | prevents the elevation in ROS levels | 
3 | CC12CC3CC(C)(C1)CC(N)(C3)C2 [memantine, reference compound] |  | 64%
